Entries after “also recorded” stand apart in the source; their conditions may differ.
Assays:
Leukemia MOLT-4 cells = experiment: VPA-induced cell morphological change, MOLT-4 cells; format: cell-based
Description: (§1) The cancer cells were inspected and photographed under an inverted light microscope at 10× magnification.

[1] = test system: pancreatic carcinoid BON cells; experiment: Cell proliferation assay (MTT), BON cells; format: cell-based, Human; conditions: single agents and combinations, 2.5 mM VPA or 10 uM SBHA in FIGS. 20, 23
Experimental: Briefly, fifty μl of medium with or without tested compounds was added to 96-well plates. Another 50 μl of tested cancer cells (1×10^5 cells/ml) suspended in culture medium was dispensed into each well. The plates were incubated at 37° C. for 3 days. Afterward, plates were added with a 15 μl dye solution per well and incubated at 37° C. for 4 hours. To each well was then added 100 μl of the solubilization solution and the plates were incubated at 37° C. again until the contents in each well became a uniformly colored solution. The plates were measured at 570 nm by a Victor Reader (PerkinElmer).

[2] = test system: ovarian cancer OVCAR8 cells; experiment: Cell proliferation assay (MTT), OVCAR8 cells; format: cell-based, Human; conditions: single agents and combinations
Experimental: Cell Proliferation Assay (MTT)
The cell proliferation assay was performed as described previously in Sun et al., Bioorg Med Chem Lett, 2004, Vol. 14, pp. 2041-2046. Briefly, 50 μl aliquots of medium with different concentrations of compounds were added to 96-well plates. All compound concentrations were tested in triplicate. Another 50 μl of the cell stock (1×10^5 cells/ml of media) was dispensed into each test well and the plates were incubated at 37° C. in a CO2 incubator for 3 days. Following the incubation period, 15 μl of the dye solution was added to each well and the plates were then incubated at 37° C. for 4 hours, followed by the addition of 100 μl per well of the solubilization solution. The plates were incubated at 37° C. until the contents in each well became a uniform-colored solution. The absorbance was measured and recorded at 570 nm by a Victor Plate Reader.
The cell proliferation assay (Promega, Madison, Wis.) was performed as described in Sun et al., Bioorg Med Chem Lett, 2004, Vol. 14, pp. 2041-2046. The absorbance was measured and recorded at 570 nm by a Victor Plate Reader (PerkinElmer, Boston, Mass.).

osteosarcoma U2OS cells = experiment: Cell proliferation assay (MTT), U2OS cells; format: cell-based, Human
Experimental: (§2) Cell Proliferation Assay (MTT) The cell proliferation assay (Promega, Madison, Wis.) was performed as described in Sun et al., Bioorg Med Chem Lett, 2004, Vol. 14, pp. 2041-2046. The absorbance was measured and recorded at 570 nm by a Victor Plate Reader (PerkinElmer, Boston, Mass.).

SCLC DMS53 cells = experiment: VPA-induced cell morphological change, DMS53 cells; format: cell-based
Description: as §1

[3] = test system: gene expression in pancreatic carcinoid BON cells; experiment: RT-PCR / real-time PCR gene expression, BON cells; format: cell-based, Human
Experimental: RT-PCR, Real-Time PCR and PCR Array
Total RNAs were isolated from tumor cells as described in the kit protocol (Invitrogen, Carlsbad, Calif.).
As for real-time PCR, the primers are the same as described in Table 1. Real-time PCR assays were performed on a Bio-Rad iCycler (Hercules Calif.). Assays were set up using iScript™ cDNA Synthesis Kit and iQ™ SYBR Green Supermix (Bio-Rad). The cDNA synthesis was run for one cycle of 25° C. for 5 min, 42° C. for 30 min, 85° C. for 5 min, and held at 4° C. PCR reactions were run in 10 μl reactions. Each 10 μl reaction contained 4 μl template (either cDNA, genomic or plasmid DNA), 5 μl iQ SYBR Green Supermix (BioRad), and 0.25 μM each of the corresponding forward and reverse primers. PCR was further run under the conditions below: one cycle of 95° C. for 5 min for initial denaturation and 40 cycles of 95° C. for 30 s and 56° C. (SST), 57° C. (SSTR2) for 30 s for primer annealing and product elongation. For melt curve data collection and analysis, one cycle of 95° C. for 1 min and 55° C. for 1 min was run with an increase of the temperature at a rate of 0.5° C. from 55° C. to 95° C. The experiments were done by holding at 15° C. β-actin was used as internal control. Results were calculated using the comparative 2^−ΔΔCT methods as described in Livak et al., Methods, 2001, Vol. 25, pp. 402-408.
(§3) RT-PCR was performed on total RNA that was isolated from tumor cells as described in the protocol (Invitrogen, Carlsbad, Calif.). All primers for SST, BN, and PACAP receptors were obtained from previously published reports, such as Sun et al. 2011. The PCR amplification is regularly 35 cycles, with more or less cycles due to the difference in RNA abundance of these investigated genes. Primers used for real-time PCR analyses were identical to those described above. Real-time PCR assays were performed as described in Sun et al 2011. β-actin was used as the internal control and results were calculated by applying 2^−ΔΔCT methods as described above.

[4] = test system: medullary thyroid cancer (MTC) TT cells; experiment: Cell proliferation assay (MTT), TT cells; format: cell-based; conditions: single agents and combinations
lung cancer A549 cells [5] = experiment: Cell proliferation assay (MTT), A549 cells; format: cell-based
Experimental: as §2

[6] = test system: ovarian cancer NCI/ADR-RES cells; experiment: VPA-induced cell morphological change, NCI/ADR-RES cells; format: cell-based
Description: as §1

[7] = test system: prostate cancer PC-3 cells; experiment: Cell proliferation assay (MTT), PC-3 cells; format: cell-based; conditions: single agents and combinations
Experimental: as §2

[8] = test system: gene expression in MTC TT cells; experiment: RT-PCR / real-time PCR gene expression, TT cells; format: cell-based
Experimental: as §3, with “RT-PCR, Real-Time PCR RT-PCR” for “RT-PCR”

[9] = test system: prostate cancer DU-145 cells; experiment: Cell proliferation assay (MTT), DU-145 cells; format: cell-based; conditions: single agents and combinations
Experimental: as §2

[10] = test system: ovarian cancer SKOV3 cells; experiment: Cell proliferation assay (MTT), SKOV3 cells; format: cell-based; conditions: single agents and combinations
Experimental: as §2

[11] = test system: pancreatic carcinoid BON tumors; experiment: In vivo tumor growth and treatment, BON tumors; design: species or system nude mice; conditions: FIG. 43
Experimental: In Vivo Tumor Growth and Treatment
All mice were monitored weekly. Tumor volumes were measured at 11 days post-implantation and bodyweights taken once a week. Tumors were weighed and photographed when experiments were over.
After being harvested during exponential growth phase, cells were washed 3 times with ice-cold PBS and then re-suspended in ice-cold PBS at a cell density of 4×10^7 cells/ml. […] Tumor-carrying mice were separated into four groups (n=8-10) for further treatment using s.c. injections that was applied in the flank opposite of the tumors. A control group was injected with PBS, and three tested groups were treated with compounds. One group received conjugate COL-SST (2 mg/kg) and one group received 200 mg/kg of VPA. The last group was treated with 100 mg/kg of VPA in combination with 1 mg/kg of COL-SST. All mice were injected once a day, five times a week. Tumor volumes were measured and bodyweights taken once a week.
After being harvested during their exponential growth phase, cells were washed 3 times with ice-cold PBS and then re-suspended in ice-cold PBS at a cell density of 4×10^7 cells/ml. […] Tumor-carrying mice were separated into four groups (n=8-10) for further treatment using s.c. injections that were applied in the flank opposite to the tumors. […] Tumor volumes were measured and bodyweights taken once a week.

Jurkat cells = experiment: VPA-induced cell morphological change, Jurkat cells; format: cell-based
Description: as §1

lung cancer A549 cells [12] = experiment: VPA-induced cell morphological change, A549 cells; format: cell-based
Description: as §1

[13] = test system: pancreatic carcinoid BON cells; experiment: VPA-induced cell morphological change, BON cells; format: cell-based, Human
Description: as §1

[14] = VPA treatment, confirmed by real-time PCR

With `CCCC(CCC)C(=O)O` [VPA, valproic acid] the “cell morphological change, in words” value (Leukemia MOLT-4 cells) was “no effect”, the “cell growth suppression (MTT), in words” value [1] was “displayed growth inhibition; also recorded: induced growth arrest; also recorded: suppressed growth” and the “cell growth suppression (MTT), in words” value [2] was “displayed its anti-proliferative ability; also recorded: displays its anti-proliferation ability”. For the same compound, the “cell growth suppression (MTT), in words” value (osteosarcoma U2OS cells) was “displayed its anti-proliferative ability”, the “cell morphological change, in words” value (SCLC DMS53 cells) was “no effect” and the “effect on expression of Notch receptors (RT-PCR), in words” value ([3]; VPA at serial doses, FIG. 52) was “increased the expression of Notch1, Notch2, and Notch3; Notch4 was undetectable”. The “induction of SSTR2 expression” value [3, 14] was 25 fold, the “effect on expression of SST, BN and PACAP receptors (RT-PCR), in words” value ([3]; VPA treatment, dose-dependent, FIG. 55) was “induced the expression of SSTR2 (25-fold, confirmed by real-time PCR), SSTR4, BRS3, GRPR, and VPAC2 and suppressed SSTR1” and the “slight decrease of SSTR5 expression” value ([3]; VPA treatment, real-time PCR) was 0.9 fold. For the same compound, the “effect on Notch1, SST, and SSTR2 expression, in words” value ([3]; different concentrations of VPA, beta-actin as control, FIG. 17) was “activated expression of Notch1, SST, and SSTR2”, the “cell growth suppression (MTT), in words” value [4] was “induced growth arrest” and the “cell growth suppression (MTT), in words” value (lung cancer A549 cells [5]) was “little effect; also recorded: not apparent”. The “cell morphological change, in words” value [6] was “no effect”, the “cell growth suppression (MTT), in words” value [7] was “displayed its anti-proliferative ability; also recorded: displays its anti-proliferation ability” and the “effect on expression of Notch receptors (RT-PCR), in words” value ([8]; VPA at serial doses, FIG. 52) was “significantly increase Notch1, Notch2, and Notch3, with a decrease of Notch4 expression”. The “effect on expression of SST, BN and PACAP receptors (RT-PCR), in words” value ([8]; VPA treatment, FIG. 55) was “SSTR2 (2.2-fold, confirmed by real-time PCR), BRS3, NMBR, and VPAC2 increased and SSTR3 and VPAC1 decreased, with no obvious change in the others”, the “increase of SSTR2 expression” value [8, 14] was 2.2 fold and the “cell growth suppression (MTT), in words” value [9] was “displayed its anti-proliferative ability; also recorded: displays its anti-proliferation ability”. For the same compound, the “cell growth suppression (MTT), in words” value [10] was “displayed its anti-proliferative ability; also recorded: displays its anti-proliferation ability”, the tumor inhibitory rate ([11]; BON tumors in nude mice, VPA at 200 mg/kg s.c. once a day, five times a week) was 47.9% and the “suppression of BON tumors, in words” value ([11]; nude mice) was “induced suppression”. For the same compound, the “cell morphological change, in words” value (Jurkat cells) was “no effect”, the “cell morphological change, in words” value (lung cancer A549 cells [12]) was “no effect” and the “cell morphological change, in words” value [13] was “could induce morphological change”.

From patent US9358272B2, “Multicomponent compositions and their uses” (THE ADMINISTRATORS OF THE TULANE EDUCATIONAL FUND, priority 2011, dated 2016)
